The values below come from article PMC5452050 (ACS Omega, 2017).

One series deals with AURKA (Homo sapiens, UniProt O14965). Nature of the series: Kd determination. The format is binding.
Series [1] is described as follows: In vivo pharmacokinetic study. Further details: species or system mouse.
The mark [2] stands for this setting: female, C57BL/6, mouse, plasma, ip, 3 mg/kg.
Where [3] appears, read: female, C57BL/6, mouse, plasma, ip, 5 mg/kg.
[4] abbreviates: female, C57BL/6, mouse, plasma, ip, 10 mg/kg.

AURKA, sequence (O14965 whole entry): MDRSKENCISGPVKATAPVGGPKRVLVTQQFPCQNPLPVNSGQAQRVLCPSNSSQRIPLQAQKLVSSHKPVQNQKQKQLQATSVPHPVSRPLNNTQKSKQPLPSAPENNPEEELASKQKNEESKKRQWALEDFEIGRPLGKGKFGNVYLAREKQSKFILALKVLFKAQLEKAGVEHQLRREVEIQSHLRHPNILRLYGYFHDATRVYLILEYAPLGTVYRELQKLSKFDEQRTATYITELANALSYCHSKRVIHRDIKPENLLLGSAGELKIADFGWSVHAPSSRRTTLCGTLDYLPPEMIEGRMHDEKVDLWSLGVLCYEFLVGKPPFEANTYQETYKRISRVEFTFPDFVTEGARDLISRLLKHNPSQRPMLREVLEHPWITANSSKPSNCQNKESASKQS

At AURKA, `c1cncc(-c2cccc(Nc3nccc(NC4CCCCC4)n3)c2)c1` [Compound 1, N^4-Cyclohexyl-N^2-(3-(pyridin-3-yl)phenyl)pyrimidine-2,4-diamine] displayed a Kd of 1.6 µM.
Take `CC(C)Nc1ccnc(Nc2cccc(-c3cccnc3)c2)n1` [Compound 5e, N^4-Isopropyl-N^2-(3-(pyridin-3-yl)phenyl)pyrimidine-2,4-diamine]: the AUC in series [1] (setting [2]) came out at 183 nM·h; in series [1] (setting [3]), 683 nM·h; in series [1] (setting [4]), 953 nM·h. Also, the Tmax in series [1] (setting [2]) was found to be 4.98 min; in series [1] (setting [3]), 4.98 min; in series [1] (setting [4]), 15 min. The highest concentration (Cmax) in series [1] (female, C57BL/6, mouse, plasma, ip, 3 mg/kg, Cmax, mice) stood at 0.327 µM; in series [1] (female, C57BL/6, mouse, plasma, ip, 5 mg/kg, Cmax, mice) it was 0.927 µM; in series [1] (female, C57BL/6, mouse, plasma, ip, 10 mg/kg, Cmax, mice) it was 1.62 µM; in series [1] (mice, i.p., 3 mg/kg), 0.376 µM; in series [1] (mice, i.p., 10 mg/kg) it was 1.65 µM. Moreover, the half-life in series [1] (female, C57BL/6, mouse, plasma, ip, 3 mg/kg, T1/2, mice) was 13.8 min; in series [1] (female, C57BL/6, mouse, plasma, ip, 5 mg/kg, T1/2, mice), 32.4 min; in series [1] (female, C57BL/6, mouse, plasma, ip, 10 mg/kg, T1/2, mice) it was 60 min; in series [1] (female, C57BL/6, mouse, plasma, ip, 10 mg/kg, half-life, mice, across 3, 5 and 10 mg/kg), 13.8 to 60 min. The Cl in series [1] (mice, i.p., 3 mg/kg) was determined as 50.7 L/h/kg; in series [1] (mice, i.p., 5 mg/kg), 23.8 L/h/kg; in series [1] (mice, i.p., 10 mg/kg), 33.1 L/h/kg. The Vz turned out to be 16.7 L/kg in series [1] (mice, i.p., 3 mg/kg); 18.6 L/kg in series [1] (mice, i.p., 5 mg/kg); 47.3 L/kg in series [1] (mice, i.p., 10 mg/kg).

Usually Kd stands for a measure of binding affinity in units of concentration. What is called AUC is concentration integrated over time. A high value points to high exposure. By Tmax is commonly meant the time at which the peak concentration occurs. The term Cmax denotes the highest concentration seen after dosing. For orientation: half-life means the time needed for the level to fall by half in the phase considered. Higher therefore signals slow decline.
